US20070149481A1, “N,n-bridged, nitrogen-substituted carbacyclic indolocarbazoles as protein kinase inhibitors” (priority 2002, published 2007)

What was measured:
[1] = system: PKC (rat brain); assay: Protein Kinase C inhibition assay (PKC); format: biochemical; details: 10 μM compound
Description: The ERK2 kinase activity assay utilizes a radioactivity-based format in a 96-well PCR plate with radioactive readout. The ERK2 activity was assayed in a 25 μL assay mixture containing 25 mM HEPES (pH 7.0), 250 μM ATP, 1 mM MgCl2, 1 mM DTT, 2% DMSO, 150 ng/mL Myelin Basic Protein (MBP, Sigma M-1891), and 13.6 ng/mL His tagged ERK2 (specific activity=38.1 nmol/min*mg). Compounds were screened for inhibition of the ERK2 kinase activity at a concentration of 10 μM. The kinase reaction was allowed to proceed at 37° C. for 30 minutes, then reaction was stopped by the addition of 5 μl of 0.5M EDTA (pH 8). 15 μL of each solution were then spotted onto the corresponding square of a filtermat (8×12 glassfibre mat 90×120 mm, PE-Wallac 1450-421). The filtermat was allowed to dry and washed once with 10% TCA, 2% PPA, 500 mM NaCl each for 30 minutes at rt. Two further washings in 10% TCA and 2% PPA for 30 minutes were performed, then a final 30 minute wash in 99% EtOH at rt was done and the filtermat was air dried. The dry filtermat was then placed in a sample bag with a Meltilex sheet (Melt-on scintillator sheets 73×109 mm, PE-Wallac 1450-441 for filtermat A) over the filtermat. The bag was trimmed to fit into the microplate heatsealer (PE-Wallac 1495-021). The heatsealer is used to melt the Meltilex on the filtermat. The bag containing the filtermat and the melted Meltilex was then placed into a filter cassette and counted using the Microbeta Jet Scintillation and Luminescence Counter PE-Wallac 1450.
The PKC kinase activity assay utilizes a radioactivity-based format in a 96-well PCR plate with radioactive readout. The PKC activity was assayed in a 25 μL assay mixture containing 25 mM HEPES (pH 7.0), 250 μM ATP, 10 mM MgCl2, 1 mM DTT, 1 mM EDTA (pH 8), 2 mM CaCl2, 2% DMSO, 250 ng/mL Histone H1 (Roche 1 004 875), and 165 ng/mL PKC (rat brain, Calbiochem 539494, specific activity=1600 nmol/min*mg). Compounds were screened for inhibition of the PKC kinase activity at a concentration of 10 μM. The kinase reaction was allowed to proceed at 37° C. for 30 minutes, then the reaction was stopped by addition of 5 μL of 0.5M EDTA (pH 8). The remainder of the protocol is identical to the one reported for ERK2.

[2] = Determination of brain/plasma ratios for NAD0241 and comparison with NAD0180 (Example 56E); format: in vivo, Wistar Han Rats; details: rats, 5 mg/kg i.v., 1 hour post-administration
Description: Application of Compound: 5 mg/kg of NAD 241 and NAD0180 each in a vehicle of 1.5 mL/kg PEG 400 Macrogol Ph. Eur. were applied i.v. through the femoral vein to two groups (n=3) of Wistar Han Rats weighing between 240-270 g. The application was performed under anaesthesia, initiated with 3.5% Isofluorane/O2, then maintained at 1% during compound application and suture of the vein. 200 μL of local anaesthetic lidocaine were locally administered. 1 hour after application of the compound 200 μl of blood were obtained by tail vein incision. Immediately following the blood sampling rats were terminated by decapitation after brief CO2 anaesthesia Brains were resected and weighed. Plasma was obtained by centrifugation of the tail vein blood at 13000 g for 20 minutes at 4° C. […]
Establishment of Extraction Recovery and Standard Curve for NAD0241 and NAD0180: 100 μL of plasma or 0.5 g brain tissue homogenate in saturated NaCl, obtained from control rats, were spiked with NAD0241 and NAD0180, respectively, to produce concentrations ranging from 1 ng/mL to 5 μg/mL. […] Quantitative analysis of the extracts was performed by HPLC with fluorescence detection. […] Fluorescence detection and quantitation by peak area was performed with a G1321A (Agilent Tech 1100 series) detector at excitation and emission wavelengths of 317 nm and 542 nm, respectively, for NAD0241, and 315 nm and 565 nm for NAD0180. […]

Q: Which “% Inhibition PKC” value [1] does the source give for `NC(=O)[C@]1(N)CC2CC1n1c3ccccc3c3c4c(c5c6ccccc6n2c5c31)C(=O)NC4=O` (mixture of isomers) [Compound 5] here?
A: 91.62%

Q: And the brain/plasma ratio fold difference vs NAD0180 at 1 h ([2]; Wistar Han, rat, brain and plasma, iv)?
A: > 30 fold

Q: What about the “ability to pass the BBB / blood-brain barrier penetration” value ([2]; NAD0241 vs NAD0180) of the same molecule?
A: pass more readily the BBB
